Here are results for two molecules from US10835548B2, “Metronomic oral gemcitabine for cancer therapy” (priority 2016, dated 2020).

Where two headings read alike, the source gives them in different places.

As usually defined, the T/C is the ratio of treated to control.

Data set [1] relates to CFPAC-1 pancreatic cancer xenografts. Briefly: 5FU injection followed by GEMORAL in CFPAC-1 xenografted mouse model. The class given is in vivo, BALB/c nude mice. The protocol:
Pancreatic cancer monotherapy using 5-fluorouracil (5FU) injection is known. […] We investigated oral metronomic GEM administration as a second-line treatment in 5FU-non-responsive pancreatic tumors using a xenograft model. To prepare the xenografted mice used in the study, 1×10^6 human CFPAC-1 pancreatic cancer cells were transplanted subcutaneously on the right flank of 6 week old male BALB/c nude mice. Tumor growth was observed once a week, tumor volume was measured as L×W^2/2 by caliper, and mice were selected for inclusion in the study when their tumor volume reached about 131 cubic millimeters. […] The day on which mice were first dosed was designated “Day 0” of the study, and the study continued for 112 days. Mice of Group 1 were orally administered 10 mg/kg GEMORAL every other day (i.e., Q2D×56), beginning on day 0 of the study and extending through the end of the study. […] Beginning on day 63 of the study, the mice were orally administered 10 mg/kg GEMORAL every other day (i.e., Q2D×25) through the end of the study. […] Beginning on day 21 of the study, the mice were orally administered 10 mg/kg GEMORAL every other day (i.e., Q2D×46) through the end of the study. […] They were intraperitoneally injected with saline on days 0, 3, 6, and 9 of the study (i.e., Q3D×4). […]

A short description of data set [2]: MTD of GEM intravenous infusion regime in human cancer patients (Fossella et al.). It is filed as in vivo. As to the method:
For GEM, others have determined MTD values for human cancer patients. For example, Fossella et al. (1997, J. Clin. Oncol. 15:310-316) estimated an MTD of 2,400 mg/m^2/week for a GEM intravenous infusion regime regime (2,400 mg/m^2 corresponding to 3,893 mg/60 kg for a human patient, equal to 64.988 mg/kg). Labeling for a commercial GEM product, marketed under the brand name GEMZAR (Eli Lilly and Co.) recommends an intravenous dosage of 1,000 or 1,250 mg/m^2. In details, GEMZAR dosage administration is conducted at a dose of 1,000 mg/m^2, corresponding to 1,622 mg/60 kg for a human patient, equal to 27.03 mg/kg, administered on Days 1 and 8 or Days 1, 8, and 15 of a 21-day cycle, or at a dose of 1,250 mg/m^2, corresponding to 2,027 mg/60 kg for a human patient, equal to 33.878 mg/kg, administered on Days 1, 8, and 15 of a 28-day cycle.

The test system of data set [3] is patient-derived human cholangiocarcinoma xenografts. Put plainly: Xenografted mouse model of patient-derived human cholangiocarcinoma. As to conditions: Group 1: GEM 60 mg/kg i.p. Q3D×4. It is filed as in vivo. The protocol:
This example describes a study in which the effects of gemcitabine upon mice into which portions of a human patient-derived cholangiocarcinoma were xenografted. The xenografted mice were then treated with one of five treatment regimens and the results observed.
To prepare the xenografted mice used in the study, primary human cholangiocarcinoma fragments obtained from human patients were injected into “stock” male BALB/c nude mice. Subsequently, tumor fragments (roughly 2-3 millimeters in diameter) were harvested from the “stock” mice and inoculated subcutaneously into the right flank of other male BALB/c nude mice. Tumor development in the inoculated mice was then observed, and 40 such mice were selected for inclusion in the study when their tumor volume reached about 180 cubic millimeters (volume was assessed by multiplying tumor length by ½ (tumor width squared) (i.e., L×W^2/2), length and width being measured using a caliper). The mice were divided into 5 groups of 8 mice each for the study, all mice in each group having tumors of approximately equal size. The day on which mice were first dosed was designated “Day 1” of the study, and the study continued for 76 days. The mice were divided into Groups 1, 2, 3, 4, and 5. Mice of each group were treated identically.
Mice of Group 1 were intraperitoneally injected with 60 mg/kg of GEM on days 1, 4, 7, and 10 of the study (i.e., Q3D×4) and were not further treated thereafter. […]
Mice of Group 5 were controls and were not administered GEM. They were intraperitoneally injected with saline on days 1, 4, 7, and 10 of the study (i.e., Q3D×4). Beginning on day 13 of the study, the mice were orally administered distilled, deionized water every other day (i.e., Q2D×32) through the end of the study.
The study was continued until day 76 and the body weight losses among the mice of the various Groups were observed. […] For Group 3, 6 of 8 mice were dead by day 10.
Values reflecting anti-tumor responses, as compared with vehicle treatment (T/C %, calculated as the ratio of average tumor volume in treatment group vs. average tumor volume in the control group {Group 5}, expressed as a percentage) on different study days are indicated in Table 1.
For orientation: A xenograft is tissue or cells of one species grown in another, often human tumour cells in immunodeficient mice.

Data set [4] has as its system HuCCT1 cholangiocarcinoma xenografts. Briefly: Xenografted mouse model of human cholangiocarcinoma cell line HuCCT1. The class given is in vivo, BALB/c nude mice. The note with it: Group 1: GEM 60 mg/kg i.p. Q3D×4. The protocol:
Example 3 is a study in which the effects of GEM upon mice into which cells of human cholangiocarcinoma cell line HuCCT1 were xenografted. The xenografted mice were then treated with one of five treatment regimens and the results observed over the study period of 90 days.
To prepare the xenografted mice used in the study, 1×10^6 HuCCT1 human cholangiocarcinoma cells were transplanted subcutaneously on the right flank of 6 week old male BALB/c nude mice. Tumor growth was observed once a week and the tumor volume was measured as L×W^2/2 by caliper. Tumor development in the xenografted mice was then observed, and 40 such mice were selected for inclusion in the study when their tumor volume reached about 124 cubic millimeters. The mice were divided into 5 groups of 8 mice each for the study. The day on which mice were first dosed was designated “Day 0” of the study, and the study continued for 90 days.
Mice of Group 1 were intraperitoneally injected with 60 mg/kg of GEM on days 0, 3, 6, and 9 of the study (i.e., Q3D×4) and were not further treated thereafter.
Mice of Group 2 were intraperitoneally injected with 60 mg/kg of GEM on days 0, 3, 6, and 9 of the study (i.e., Q3D×4). Beginning on day 13 of the study, the mice were orally administered 10 mg/kg GEM in the GEMORAL composition (hereinafter “10 mg/kg GEMORAL”) every other day (i.e., Q2D×40) through the end of the study.
Mice of Group 3 were intraperitoneally injected with 60 mg/kg of GEM on days 0, 3, 6, and 9 of the study (i.e., Q3D×4). Also beginning on day 1 of the study, the mice were orally administered 10 mg/kg GEMORAL every other day (i.e., Q2D×46) through the end of the study.
Mice of Group 4 were orally administered 10 mg/kg GEMORAL every other day (i.e., Q2D×46), beginning on day 1 of the study and extending through the end of the study.
Mice of Group 5 were controls and were not administered GEM. They were intraperitoneally injected with saline on days 0, 3, 6, and 9 of the study (i.e., Q3D×4). Beginning on day 13 of the study, the mice were orally administered distilled, deionized water every other day (i.e., Q2D×40) through the end of the study.
The study was continued until day 90 and body weight losses among the mice of the various Groups were observed. In Group 3, all mice lost over 20% body weight by day 12.
Values reflecting anti-tumor responses, as compared with vehicle treatment (T/C %) on different study days are indicated in Table 2. […] It is noteworthy that by day 12 the cumulative dose of GEM for Group 4 was only about 25% that of Group 1.

For data set [5], the system named is CFPAC-1 pancreatic cancer xenografts. Briefly: Xenografted mouse model of human pancreatic cancer cell line CFPAC-1. It is filed as in vivo, BALB/c nude mice. The note with it: Group 1: GEM 120 mg/kg i.p. Q3D×23.
Protocol: Example 4 is a study in which the effects of GEM upon mice into which cells of human pancreatic cancer cell line CFPAC-1 were xenografted.
To prepare the xenografted mice used in the study, 1×10^6 human CFPAC-1 pancreatic cancer cells were transplanted subcutaneously on the right flank of 6 week old male BALB/c nude mice. Tumor growth was observed once a week and the tumor volume was measured as L×W^2/2 by caliper. Tumor development in the xenografted mice was then observed, and 48 such mice were selected for inclusion in the study when their tumor volume reached about 141 cubic millimeters. The mice were divided into 6 groups of 8 mice each for the study. The day on which mice were first dosed was designated “Day 0” of the study, and the study continued for 91 days.
Mice of Group 1 were intraperitoneally injected with 120 mg/kg of GEM on day 0 and every third day thereafter through day 66 (i.e., Q3D×23) and were not further treated thereafter.
Mice of Group 2 were intraperitoneally injected with 120 mg/kg of GEM on days 0, 3, 6, and 9 of the study (i.e., Q3D×4). Beginning on day 12 of the study, the mice were orally administered 10 mg/kg GEM in the GEMORAL composition (hereinafter “10 mg/kg GEMORAL”) every other day (i.e., Q2D×28) through day 66; the mice were not further treated thereafter.
Mice of Group 3 were intraperitoneally injected with 120 mg/kg of GEM on days 0, 3, 6, and 9 of the study (i.e., Q3D×4). Beginning on day 12 of the study, the mice were orally administered 3 mg/kg GEM in the GEMORAL composition (hereinafter “3 mg/kg GEMORAL”) every day (i.e., QD×55) through day 66; the mice were not further treated thereafter.
Mice of Group 4 were orally administered 3 mg/kg GEMORAL every day (i.e., QD×92), beginning on day 0 of the study and extending through the end of the study.
Mice of Group 5 were orally administered 10 mg/kg GEMORAL every other day (i.e., Q2D×46), beginning on day 0 of the study and extending through the end of the study.
Mice of Group 6 were controls and were not administered GEM. […]
The conditions of data set [6]: intravenous infusion, human cancer patients; cited from earlier work.

For `O=c1[nH]cc(F)c(=O)[nH]1` [5FU, 5-fluorouracil], the “anti-tumor response attributable to 5FU treatment” value is listed as “No significant anti-tumor response” in data set [1] (Group 2: 5FU 20 mg/kg i.p. thrice weekly, first 9 weeks) and “No significant anti-tumor response” in data set [1] (Group 3: 5FU 20 mg/kg i.p. thrice weekly, first 3 weeks).

On to `Nc1ccn([C@@H]2O[C@H](CO)[C@@H](O)C2(F)F)c(=O)n1` [GEM, gemcitabine], for which the “MTD (corresponding dose for a human patient)” value in data set [2] (converted from 2,400 mg/m^2) was 3,893 mg/60 kg. Besides, the MTD in data set [2] (human, in vivo, converted from 2,400 mg/m^2, read-out: MTD (corresponding dose per body weight)) was 65 mg/kg; in data set [6] it was 2,400 mg/m^2/week. In addition, the T/C in data set [3] (Day 14) is 52%; in data set [3] (Day 42), 22%; in data set [3] (Day 73), 46%; in data set [3] (Day 76), 49%; in data set [4] (Day 12), 54%; in data set [4] (Day 37), 60%. Besides, the T/C in data set [4] (Day 58) was 93%; in data set [4] (Day 76), 96%; in data set [4] (Day 90) it was 82%. Besides, in data set [3] (after day 11), the “tumor growth after end of dosing” value is “significant tumor growth after completing the scheduled dosing”. Besides, the “mice dead (died or tumor size >1000 cubic millimeters)” value in data set [3] (by day 76) was 4 of 8. Moreover, the “mean survival time (MST)” value in data set [4] is on record as 69 days. This molecule also registered a survival rate in data set [4] (day 90, Kaplan-Maier) of 50%. The “maximum tumor growth inhibition value” in data set [4] (on day 27) was 47%. In addition, the “days at which at least some mice were tumor free” value in data set [5] fell in the range of 44 to 91 days. Further, the mice tumor free in data set [5] (at day 91) was 6/8. Besides, the “maximum anti-tumor response, T/C” value in data set [5] (on day 81) was 0%.
